Reference: ChEMBL document CHEMBL3046832, “Synthesis of some sulfonamides, disubstituted sulfonylureas or thioureas and some structurally related variants. A class of promising antitumor agents” (2007)

Key:
Format in all cases: functional
HOP-92 = experiment: Cytotoxicity against Homo sapiens (human) HOP92 cells after 48 hr by SRB assay; conditions: HOP-92, 48 h
RXF 393 = experiment: Cytotoxicity against Homo sapiens (human) RXF393 cells after 48 hr by SRB assay; conditions: RXF 393, 48 h
PC-3 = experiment: Cytotoxicity against Homo sapiens (human) PC3 cells after 48 hr by SRB assay; conditions: PC-3, 48 h
SF-268 = experiment: Cytotoxicity against Homo sapiens (human) SF268 cells assessed as cellular growth after 48 hr by Alamar blue assay; set-up: concentration or dose not given beside the values
KM12 = experiment: Cytotoxicity against Homo sapiens (human) KM12 cells after 48 hr by SRB assay; conditions: KM12, 48 h
SW-620 = experiment: Cytotoxicity against Homo sapiens (human) SW620 cells after 48 hr by SRB assay; conditions: SW-620, 48 h
SK-OV-3 = experiment: Cytotoxicity against Homo sapiens (human) SKOV3 cells after 48 hr by SRB assay; conditions: SK-OV-3, 48 h
SNB-19 = experiment: Cytotoxicity against Homo sapiens (human) SNB19 cells after 48 hr by SRB assay; conditions: SNB-19, 48 h
SK-MEL-28 = experiment: Cytotoxicity against Homo sapiens (human) SK-MEL-28 cells after 48 hr by SRB assay; conditions: SK-MEL-28, 48 h
NCI-H460 = experiment: Cytotoxicity against Homo sapiens (human) NCI-H460 cells after 48 hr by SRB assay; conditions: NCI-H460, 48 h
BT-549 = experiment: Cytotoxicity against Homo sapiens (human) BT549 cells after 48 hr by SRB assay; conditions: BT-549, 48 h
[1] = Cytotoxicity against Homo sapiens (human) ovarian cancer cells after 48 hr by SRB assay; conditions: Cancer cell lines
SK-MEL-2 = experiment: Cytotoxicity against Homo sapiens (human) SK-MEL-2 cells after 48 hr by SRB assay; conditions: SK-MEL-2, 48 h
SN12C = experiment: Cytotoxicity against Homo sapiens (human) SN12C cells after 48 hr by SRB assay
RPMI-8226 = experiment: Cytotoxicity against Homo sapiens (human) RPMI8226 cells after 48 hr by SRB assay; conditions: RPMI-8226, 48 h
[2] = Cytotoxicity against Homo sapiens (human) NCI-ADR-RES cells after 48 hr by SRB assay
NCI-H226 = experiment: Cytotoxicity against Homo sapiens (human) NCI-H226 cells after 48 hr by SRB assay; conditions: NCI-H226, 48 h
TK-10 = experiment: Cytotoxicity against Homo sapiens (human) TK10 cells after 48 hr by SRB assay; conditions: TK-10, 48 h
HCT-116 = experiment: Cytotoxicity against Homo sapiens (human) HCT116 cells after 48 hr by SRB assay; conditions: HCT-116, 48 h
K562 = experiment: Cytotoxicity against Homo sapiens (human) K562 cells after 48 hr by SRB assay; conditions: K562, 48 h

SMILES | GI50 (HOP-92) [µM] | GI50 (RXF 393) [µM] | GI50 (PC-3) [µM] | Activity (SF-268) | GI50 (KM12) [µM] | GI50 (SW-620) [µM] | GI50 (SK-OV-3) [µM] | GI50 (SNB-19) [µM] | GI50 (SK-MEL-28) [µM] | GI50 (NCI-H460) [µM] | GI50 (BT-549) [µM] | GI50 [1] [µM] | TGI [1] [µM] | GI50 (SK-MEL-2) [µM] | GI50 (SN12C) [µM] | GI50 (RPMI-8226) [µM] | GI50 [2] [µM] | GI50 (NCI-H226) [µM] | GI50 (TK-10) [µM] | GI50 (HCT-116) [µM] | further results
O=C(NC(=S)NS(=O)(=O)c1ccc(N2N=C3c4ccccc4CC3C2c2cccs2)cc1)c1ccccc1 (stereo not given) | 53 | 54 | 29.7 | <=32% | 28.2 | 34.8 | 90.8 | 46.3 | 84 | > 100 | 21.6 | 41.9 | 95.3 | 44 | 26 | 29.7 | 18.8 | – | – | – | –
O=C1CS/C(=N\S(=O)(=O)c2ccc(N3N=C4c5ccccc5CC4C3c3cccs3)cc2)N1C(=O)c1ccccc1 (stereo not given) | 37.3 | 63.9 | 38.1 | <=32% | 21.4 | 38.5 | > 100 | 77 | > 100 | > 100 | 33.5 | 60.9 | > 100 | > 100 | 90.7 | 34 | > 100 | 58.5 | 49.6 | 22 | –
O=S(=O)(/N=c1\scc(-c2ccccc2)n1-c1ccccc1)c1ccc(N2N=C3c4ccccc4CC3C2c2cccs2)cc1 (stereo not given) | > 100 | 98.2 | 75 | <=32% | 32.1 | 94.2 | > 100 | > 100 | > 100 | 95.1 | 47.5 | 87.2 | > 100 | > 100 | 94.3 | 51 | > 100 | 78.9 | 32.7 | – | GI50 (K562): > 100 µM
O=C(c1ccccc1)n1c(-c2ccccc2)cs/c1=N\S(=O)(=O)c1ccc(N2N=C3c4ccccc4CC3C2c2cccs2)cc1 (stereo not given) | > 100 | 37 | 39.2 | <=32% | 38.3 | 58.8 | > 100 | 59.2 | > 100 | > 100 | 69.7 | 72 | > 100 | > 100 | 44.4 | 32.3 | > 100 | 30.1 | 30.5 | 30.5 | GI50 (K562): 27.6 µM
O=C1CCS/C(=N\S(=O)(=O)c2ccc(N3N=C4c5ccccc5CC4C3c3cccs3)cc2)N1c1ccccc1 (stereo not given) | 35.9 | 98.2 | 75 | <=32% | 17.1 | 24 | 32.9 | 22.3 | 42.1 | > 100 | 47.5 | 27.8 | 55.4 | 28 | 94.3 | 18.1 | > 100 | 26.5 | 32.7 | 20.3 | GI50 (K562): > 100 µM
O=C1CCS/C(=N\S(=O)(=O)c2ccc(N3N=C4c5ccccc5CC4C3c3cccs3)cc2)N1C(=O)c1ccccc1 (stereo not given) | 25.4 | 6.31 | 29.2 | <=32% | 29.4 | 13.1 | 52.8 | 45.7 | 50.2 | 26.6 | 4.77 | 36.9 | 42.1 | 29.4 | 16.7 | 58.6 | 32.9 | 15.9 | 24.5 | 10 | GI50 (K562): 26.4 µM
O=C1CS/C(=N\S(=O)(=O)c2ccc(N3N=C4c5ccccc5CC4C3c3cccs3)cc2)N(c2ccccc2)C1 (stereo not given) | 79.9 | 41 | 45 | <=32% | 28.4 | 45.2 | > 100 | 55.7 | > 100 | > 100 | 21.4 | 63.2 | > 100 | 60.2 | 34.3 | 31 | > 100 | 22.3 | – | 12.5 | GI50 (K562): 10.3 µM
